# According to ChEMBL document CHEMBL1149428, “Design, synthesis, and biological activity of novel polycyclic aza-amide FKBP12 ligands” (J Med Chem, 2006):
# Molecular target: Peptidyl-prolyl cis-trans isomerase FKBP1A (Homo sapiens, UniProt P62942)
# Experiment: Inhibition of FKBP12 rotamase activity
# Peptidyl-prolyl cis-trans isomerase FKBP1A, sequence (P62942 whole entry): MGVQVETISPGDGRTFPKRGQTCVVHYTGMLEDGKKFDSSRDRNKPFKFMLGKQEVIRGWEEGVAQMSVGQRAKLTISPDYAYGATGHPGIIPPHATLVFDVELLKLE
row,SMILES,Ki [nM]
1,COc1ccc2c(c1)CCN1C(=O)C3CCCC(C21)N3S(=O)(=O)Nc1ccc(F)nc1 (centres undefined),183
2,COc1cc2c(c(OC)c1)C1C3CCCC(C(=O)N1CC2)N3S(=O)(=O)c1ccc(C#N)cc1 (centres undefined),82
3,CCc1ccc(S(=O)(=O)N2C3CCCC2C2c4c(cc(OC)cc4OC)CCN2C3=O)cc1 (centres undefined),266
4,COc1cc2c(c(OC)c1)C1C3CCCC(C(=O)N1CC2)N3S(=O)(=O)c1ccc(-c2ccc(Cl)c(Cl)c2)cc1 (centres undefined),156
5,COc1ccc2c(c1)CCN1C(=O)C3CCCC(C21)N3S(=O)(=O)Nc1cc(F)c(F)c(F)c1 (centres undefined),236
6,COc1ccc2c(c1)CCN1C(=O)C3CCCC(C21)N3S(=O)(=O)Nc1ccc(Cl)nc1 (centres undefined),360
7,COc1cc2c(c(OC)c1)C1C3CCCC(C(=O)N1CC2)N3C(=O)N(c1ccccc1C)c1ccccc1C (centres undefined),330
8,COc1cc(C(=O)C(=O)N2C3CCCC2C2c4cc(F)ccc4CCN2C3=O)cc(OC)c1OC (centres undefined),225
9,COc1cc(C(=O)C(=O)N2C3CCCC2C2c4c(F)cccc4CCN2C3=O)cc(OC)c1OC (centres undefined),201
10,COc1cc2c(c(OC)c1)C1C3CCCC(C(=O)N1CC2)N3S(=O)(=O)c1ccccc1 (centres undefined),244
11,COc1ccc2c(c1)CCN1C(=O)C3CCCC(C21)N3S(=O)(=O)Nc1ccc(F)c(F)c1 (centres undefined),150
12,COc1ccc2c(c1)CCN1C(=O)C3CCCC(C21)N3S(=O)(=O)Nc1ccc(N2CCOCC2)nc1 (centres undefined),591
13,COc1cc(C(=O)C(=O)N2C3CCCC2C2c4cccc(Cl)c4CCN2C3=O)cc(OC)c1OC (centres undefined),152
14,COc1ccc2c(c1)CCN1C(=O)C3CCCC(C21)N3S(=O)(=O)Nc1cc(F)c(F)cc1F (centres undefined),590
15,COc1cc2c(c(OC)c1)C1C3CCCC(C(=O)N1CC2)N3S(=O)(=O)c1ccc(C)cc1 (centres undefined),84
16,COc1cc2c(c(OC)c1)C1C3CCCC(C(=O)N1CC2)N3C(=O)N(c1ccc([N+](=O)[O-])cc1)c1ccc([N+](=O)[O-])cc1 (centres undefined),772

row,SMILES,Ki [nM]
1,COc1ccc2c(c1)CCN1C(=O)C3CCCC(C21)N3S(=O)(=O)Nc1ccc(OC)nc1 (centres undefined),210
2,COc1cc2c(c(OC)c1)C1C3CCCC(C(=O)N1CC2)N3S(=O)(=O)c1cccc(Br)c1 (centres undefined),54
3,COc1ccc2c(c1)CCN1C(=O)C3CCCC(C21)N3S(=O)(=O)N1CCCCC1 (centres undefined),360
4,COc1cc2c(c(OC)c1)C1C3CCCC(CN1CC2)N3C(=O)C(=O)c1cc(OC)c(OC)c(OC)c1 (centres undefined),31700
5,COc1cc2c(c(OC)c1)C1C3CCCC(C(=O)N1CC2)N3C(=O)N(c1ccc(F)cc1F)c1ccc(F)cc1F (centres undefined),7000
6,COc1cc2c(c(OC)c1)C1C3CCCC(C(=O)N1CC2)N3S(=O)(=O)c1cccc(C)c1 (centres undefined),104
7,COc1cc(C(=O)C(=O)N2C3CCCC2C2c4ccccc4CCN2C3=O)cc(OC)c1OC (centres undefined),217
8,COc1cc2c(c(OC)c1)C1C3CCCC(C(=O)N1CC2)N3C(=O)N(c1ccccc1)c1ccccc1 (centres undefined),2700
9,COc1ccc2c(c1)CCN1C(=O)C3CCCC(C21)N3S(=O)(=O)Nc1cc(OC)c(OC)c(OC)c1 (centres undefined),640
10,COc1cc(C(=O)C(=O)N2C3CCCC2C2c4cc(C)ccc4CCN2C3=O)cc(OC)c1OC (centres undefined),85
11,COc1cc2c(c(OC)c1)C1C3CCCC(C(=O)N1CC2)N3C(=O)C(F)(F)c1cc(OC)c(OC)c(OC)c1 (centres undefined),91
12,COc1cccc2c1CCN1C(=O)C3CCCC(C21)N3C(=O)C(=O)c1cc(OC)c(OC)c(OC)c1 (centres undefined),105
13,COc1cc2c(c(OC)c1)C1C3CCCC(C(=O)N1CC2)N3S(=O)(=O)c1ccc(Nc2cc(OC)c(OC)c(OC)c2)cc1 (centres undefined),288
14,COc1cc2c(c(OC)c1)C1C3CCCC(C(=O)N1CC2)N3S(=O)(=O)c1ccc(Br)cc1 (centres undefined),92
15,COc1ccc2c(c1)CCN1C(=O)C3CCCC(C21)N3S(=O)(=O)N1C[C@@H](C)O[C@@H](C)C1 (some centres undefined),123
16,COc1cc2c(c(OC)c1)C1C3CCCC(C(=O)N1CC2)N3C(=O)N(c1ccccc1OC)c1ccccc1OC (centres undefined),357

# Results, then the compound that gave them:
row,Ki [nM],SMILES
1,126,COc1cc(C(=O)C(=O)N2C3CCCC2C2c4cc(Cl)ccc4CCN2C3=O)cc(OC)c1OC (centres undefined)
2,72,COc1cc2c(c(OC)c1)C1C3CCCC(C(=O)N1CC2)N3C(=O)C(=O)c1ccc(Cl)cc1 (centres undefined)
3,100,COc1cc2c(c(OC)c1)C1C3CCCC(C(=O)N1CC2)N3C(=O)C(=O)c1ccccc1 (centres undefined)
4,60,COc1cc2c(c(OC)c1)C1C3CCCC(C(=O)N1CC2)N3C(=O)C(=O)c1ccc(OC)c(OC)c1 (centres undefined)
5,123,CCc1ccc(C(=O)C(=O)N2C3CCCC2C2c4c(cc(OC)cc4OC)CCN2C3=O)cc1 (centres undefined)
6,69,COc1cc2c(c(OC)c1)C1C3CCCC(C(=O)N1CC2)N3C(=O)C(=O)c1cc(OC)c(OC)c(OC)c1 (centres undefined)
7,34,COc1cc(OC)cc(C(=O)C(=O)N2C3CCCC2C2c4c(cc(OC)cc4OC)CCN2C3=O)c1 (centres undefined)
8,583,COc1cc2c(c(OC)c1)C1C3CCCC(C(=O)N1CC2)N3C(=O)C(=O)c1ccccc1Cl (centres undefined)
9,110,COc1cc2c(c(OC)c1)C1C3CCCC(C(=O)N1CC2)N3C(=O)C(=O)c1ccc(F)cc1 (centres undefined)
10,46,COc1cc2c(c(OC)c1)C1C3CCCC(C(=O)N1CC2)N3C(=O)C(=O)c1cccc(Cl)c1 (centres undefined)
11,143,COc1ccc2c(c1)CCN1C(=O)C3CCCC(C21)N3C(=O)C(=O)c1cc(OC)c(OC)c(OC)c1 (centres undefined)
12,20800,COc1cc2c(c(OC)c1)C1C3CCCC(C(=O)N1CC2)N3C(=O)C(=O)c1cc(C(C)(C)C)c(O)c(C(C)(C)C)c1 (centres undefined)
13,71,COc1cc2c(c(OC)c1)C1C3CCCC(C(=O)N1CC2)N3C(=O)C(=O)c1ccc(Br)cc1 (centres undefined)
14,1000,CCN(CC)c1ccc(C(=O)C(=O)N2C3CCCC2C2c4c(cc(OC)cc4OC)CCN2C3=O)cc1 (centres undefined)
15,171,COc1cc(C(=O)C(=O)N2C3CCCC2C2c4ccc(Cl)cc4CCN2C3=O)cc(OC)c1OC (centres undefined)
16,3100,COc1cc2c(c(OC)c1)C1C3CCCC(C(=O)N1CC2)N3C(=O)Cc1ccc(Cl)cc1 (centres undefined)
17,238,COc1cc2c(c(OC)c1)C1C3CCCC(C(=O)N1CC2)N3C(=O)C(=O)c1ccccc1O (centres undefined)
18,107,COc1cc2c(c(OC)c1)C1C3CCCC(C(=O)N1CC2)N3C(=O)C(=O)c1cccs1 (centres undefined)
19,279,COc1cc2c(c(OC)c1)C1C3CCCC(C(=O)N1CC2)N3C(=O)C(=O)c1ccco1 (centres undefined)
20,131,COc1ccc(C(=O)C(=O)N2C3CCCC2C2c4c(cc(OC)cc4OC)CCN2C3=O)cc1 (centres undefined)
21,34,COc1cc2c(c(OC)c1)C1C3CCCC(C(=O)N1CC2)N3C(=O)C(=O)c1ccc(Cl)c(Cl)c1 (centres undefined)
22,282,COc1cc2c(c(OC)c1)C1C3CCCC(C(=O)N1CC2)N3C(=O)C(=O)c1cccc(Cl)c1Cl (centres undefined)
23,110,COc1cc2c(c(OC)c1)C1C3CCCC(C(=O)N1CC2)N3C(=O)C(=O)c1cccnc1 (centres undefined)
24,208,COc1cc2c(c(OC)c1)C1C3CCCC(C(=O)N1CC2)N3C(=O)C(O)c1ccc(Cl)cc1 (centres undefined)
25,2300,COc1cc2c(c(OC)c1)C1C3CCCC(C(=O)N1CC2)N3C(=O)C(=O)c1cc2ccccc2[nH]1 (centres undefined)
26,153,COc1cc2c(c(OC)c1)C1C3CCCC(C(=O)N1CC2)N3C(=O)C(=O)c1cc(Cl)ccc1Cl (centres undefined)
27,586,COc1cc2c(c(OC)c1)C1C3CCCC(C(=O)N1CC2)N3C(=O)C(=O)c1ccc(Cl)cc1Cl (centres undefined)
